Some test systems named below: TK-10 renal; NCI-H522 lung; HT29 colon; U251 CNS; MDA-MB-231 breast; MALME-3M melanoma; PC-3 prostate; SW-620 colon; UO-31 renal; CCRF-CEM leukemia.
Assay in all cases: DTP human tumour cell line panel, 48 h

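48-hour exposure; five concentrations; linearly interpolated endpoints. GI50 is the concentration that inhibits growth by half. The concentration for full growth arrest is given as TGI.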 Where only a bound is given, the exact number is not on record here.

In general, TGI refers to the concentration giving total growth inhibition. A high value points to less potent growth arrest. `COc1cc(/C=C2\C[C@H]3[C@@H]4CC=C5C[C@@H](N6CCCC6)CC[C@]5(C)[C@H]4CC[C@]3(C)[C@H]2O)cc(OC)c1OC`: the TGI is 34.6 µM in the assay on TK-10 renal; 26.7 µM in the assay with NCI-H522 lung; 14.5 µM in the assay on HT29 colon; 28.8 µM in the assay with U251 CNS; 33.6 µM with MDA-MB-231 breast; 23.9 µM with MALME-3M melanoma. Besides, the TGI in the assay on PC-3 prostate was 28.8 µM; with SW-620 colon it was over 61.4 µM; with UO-31 renal, 6.6 µM; with CCRF-CEM leukemia, over 100 µM.

Turning to `CSc1nc2ccccc2c(=O)n1/N=C1\C(=O)N(CN2CCOCC2)c2ccc(Cl)cc21`, the TGI in the assay on TK-10 renal was 71.4 µM; in the assay with NCI-H522 lung it was 89.8 µM; with HT29 colon, over 100 µM; with U251 CNS, over 100 µM; in the assay with MDA-MB-231 breast, over 100 µM; in the assay with MALME-3M melanoma, over 100 µM. In addition, the TGI with PC-3 prostate, in the assay with SW-620 colon, in the assay with UO-31 renal and with CCRF-CEM leukemia was over 100 µM in each case.

Regarding `CC/C(Cl)=N\OC(=O)Nc1ccc(OC)cc1`, the TGI in the assay on TK-10 renal is 18.2 µM; with NCI-H522 lung it was 2.18 µM; with HT29 colon, 33.8 µM; in the assay on U251 CNS, over 57.2 µM; in the assay on MDA-MB-231 breast, 17.3 µM; in the assay on MALME-3M melanoma, 10.7 µM. In addition, the total growth inhibition concentration (TGI) in the assay on PC-3 prostate was 29.5 µM; with UO-31 renal it was 20.8 µM; in the assay with CCRF-CEM leukemia, 4.97 µM.

`CCOC(=O)c1c(SC(=O)c2cc(OC)c(OC)c(OC)c2)n(-c2ccccc2)c(=S)n(-c2ccccc2)c1=O`: the TGI in the assay on TK-10 renal, in the assay with NCI-H522 lung, with HT29 colon, in the assay with U251 CNS, in the assay with MDA-MB-231 breast and in the assay with MALME-3M melanoma was over 100 µM in each case. Further, the TGI in the assay on PC-3 prostate, with SW-620 colon and with CCRF-CEM leukemia was over 100 µM throughout.

The GI50 is the concentration at which growth is held to half of that of the control. Regarding `COC12C=C/C(=C(/C(=O)OCc3ccncn3)C(=O)CCCCCCCCC3(OC)C=C/C(=C(/C(=O)OCc4ccncn4)C(=O)CCCCCCCC1)O3)O2`, the GI50 is 0.395 µM in the assay on TK-10 renal; 0.207 µM in the assay on NCI-H522 lung; 0.266 µM in the assay on HT29 colon; 0.335 µM in the assay with U251 CNS; 0.335 µM in the assay with MDA-MB-231 breast; 0.228 µM with MALME-3M melanoma. The results for the GI50 in the assay with PC-3 prostate, in the assay with SW-620 colon and with CCRF-CEM leukemia were 0.305 µM, 0.303 µM and 0.251 µM, respectively. Further, the TGI was 2.4 µM in the assay on TK-10 renal; 0.545 µM with NCI-H522 lung; 0.689 µM in the assay on HT29 colon; 1.54 µM with U251 CNS; over 100 µM in the assay with MDA-MB-231 breast; 0.629 µM in the assay with MALME-3M melanoma. For the same molecule, the concentration for total growth inhibition (TGI) in the assay on PC-3 prostate came out at 1.09 µM; in the assay on SW-620 colon, 1.14 µM; in the assay on CCRF-CEM leukemia it was 1.55 µM.

On to `Cc1cc(S(=O)(=O)Nc2nc3ccsc3c(=O)n2N)c(S)cc1Cl`, for which the TGI in the assay on TK-10 renal, with NCI-H522 lung, in the assay with HT29 colon, in the assay with U251 CNS, in the assay with MDA-MB-231 breast and with MALME-3M melanoma was over 100 µM in each case. In addition, the TGI with PC-3 prostate, with SW-620 colon and with CCRF-CEM leukemia was over 100 µM throughout.

Consider `COC(=O)c1c(OC(C)=O)ccc2c1c1c(OC(C)=O)c3ccccc3c(OC(C)=O)c1n2Cc1cc(OC)cc(OC)c1`, for which the TGI in the assay with TK-10 renal was over 100 µM; in the assay with NCI-H522 lung it was 9.2 µM; with HT29 colon, over 100 µM; in the assay with U251 CNS it was over 100 µM; with MDA-MB-231 breast, over 100 µM; with MALME-3M melanoma it was 70.6 µM. The TGI with PC-3 prostate, with UO-31 renal and in the assay on CCRF-CEM leukemia was over 100 µM in each case.

In the case of `Oc1nc(N/N=C/c2c[nH]c3ccccc23)[nH]c1/C=C1\C=Nc2ccccc21`, the TGI in the assay on TK-10 renal is over 100 µM; in the assay on NCI-H522 lung, 24.2 µM; in the assay with HT29 colon, 47.5 µM; with U251 CNS, 32.3 µM; in the assay with MDA-MB-231 breast, 43.2 µM; in the assay with MALME-3M melanoma, 33.8 µM. Also, the results for the concentration for total growth inhibition (TGI) in the assay with PC-3 prostate, in the assay on SW-620 colon and in the assay on CCRF-CEM leukemia were 32 µM, 35.8 µM and 25.3 µM, respectively.

On to `O=c1c2ccccc2oc2c1ccc1ncccc12`, for which the TGI in the assay on TK-10 renal is 32.6 µM; in the assay on NCI-H522 lung, 59.1 µM; in the assay with HT29 colon, over 100 µM; in the assay with MDA-MB-231 breast it was over 100 µM; with MALME-3M melanoma, 52.2 µM; with PC-3 prostate, over 100 µM. For the same molecule, the concentration for total growth inhibition (TGI) in the assay on SW-620 colon is 42 µM; in the assay with UO-31 renal, 40.9 µM; with CCRF-CEM leukemia, over 100 µM.

In the case of `CSC1=Nc2ccccc2-c2nc(-c3ccccc3)cc(-c3ccccc3)c2C1`, the TGI in the assay with TK-10 renal is 36.8 µM; in the assay on NCI-H522 lung it was 40.1 µM; with HT29 colon, over 100 µM; with U251 CNS, 44.4 µM; in the assay with MDA-MB-231 breast, 41.6 µM; with PC-3 prostate, over 100 µM. The TGI was over 100 µM with SW-620 colon, 76.6 µM in the assay with UO-31 renal and over 100 µM in the assay with CCRF-CEM leukemia.

With `O=C(CCc1cccc(O)c1)NCCc1cccc(O)c1`, the TGI in the assay on TK-10 renal, in the assay on NCI-H522 lung, in the assay with HT29 colon, in the assay with U251 CNS, with MDA-MB-231 breast and in the assay with MALME-3M melanoma was over 100 µM each time. Also, the concentration for total growth inhibition (TGI) in the assay on PC-3 prostate, with UO-31 renal and in the assay with CCRF-CEM leukemia was over 100 µM each time.

Turning to `CCOC(=O)C1=CN=C2C(=O)N(c3ccccc3)N(C)C2(C)C1=N` (stereo not drawn), the TGI in the assay on TK-10 renal, with NCI-H522 lung, in the assay with U251 CNS, in the assay with MDA-MB-231 breast, with MALME-3M melanoma and in the assay with PC-3 prostate was over 100 µM each time. Further, the TGI with SW-620 colon, with UO-31 renal and with CCRF-CEM leukemia was over 100 µM in each case.

For the molecule `CC(C)CC(=O)NC(Nc1ccc(S(=O)(=O)Nc2ncccn2)cc1)(C(F)(F)F)C(F)(F)F`, the TGI in the assay on NCI-H522 lung, in the assay with HT29 colon, in the assay on U251 CNS, in the assay on MDA-MB-231 breast, with MALME-3M melanoma and in the assay with PC-3 prostate was over 100 µM in each case. The TGI with SW-620 colon, with UO-31 renal and in the assay on CCRF-CEM leukemia was over 100 µM in each case.
